Where “and” joins values, the source holds several entries; their conditions need not be identical. Identical values can stand only once.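 These data come from cells grown in 96-well plates and exposed to compound for 48 hours at five concentrations. The concentration for 50% growth inhibition is given as GI50. The concentration for full growth arrest is given as TGI.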
Assays:
Assay in all cases: growth of human tumour cells (NCI), 48 h
DU-145 prostate = tested on: DU-145 prostate
MCF7 breast = tested on: MCF7 breast
MDA-MB-435 = tested on: MDA-MB-435
T-47D breast = tested on: T-47D breast
HOP-18 NSCLC = tested on: HOP-18 NSCLC
M19-MEL melanoma = tested on: M19-MEL melanoma
KM20L2 colon = tested on: KM20L2 colon
MDA-N = tested on: MDA-N
RXF-631 renal = tested on: RXF-631 renal

SMILES	GI50 (DU-145 prostate) [µM]	TGI (DU-145 prostate)	GI50 (MCF7 breast) [µM]	TGI (MCF7 breast) [µM]	GI50 (MDA-MB-435) [µM]	TGI (MDA-MB-435) [µM]	GI50 (T-47D breast) [µM]	TGI (T-47D breast)	TGI (HOP-18 NSCLC) [µM]	TGI (M19-MEL melanoma) [µM]	TGI (KM20L2 colon) [µM]	TGI (MDA-N) [µM]	GI50 (MDA-N) [µM]	TGI (RXF-631 renal) [µM]
O=C(c1ccccc1)c1c(C(F)(F)F)n([O-])c2cc(C(F)(F)F)ccc2[n+]1=O	1.22	2.47 µM	1.42	3.29	1.6	3.02	1.46	3.38 µM	–	–	–	–	–	–
O=C(CI)Nc1ccc(O)c2ccccc12	1.88	3.87 µM	0.766	2.35	1.9	4.34	1.7	4.27 µM	–	–	–	–	–	–
O=C1C(=O)c2ccccc2C(O)=C1CCCc1ccc(C2CCCCC2)cc1	5.17	36.5 µM	4.17	34.2	3.64	22.6	3.2	35.7 µM	–	–	–	–	–	–
COC1=CC(c2ccc[nH]2)=N/C1=C\c1[nH]c(C)c(CC(=O)OCc2ccccc2)c1C	0.324	10.9 µM	0.397	2.85	0.369	1.42	0.251	1.08 µM	–	–	–	–	–	–
C=CCC1(C(=O)OC(C)(C)C)C(OC)=C(C(=O)OC(C)(C)C)C2C1C(C(=O)OC(C)(C)C)=C(OC)C2(CC=C)C(=O)OC(C)(C)C (centres undefined)	–	–	–	–	–	–	–	–	> 100	> 100	–	–	–	–
CC(C)=CC(=O)N[C@H]1CC[C@]2(C)C3CC[C@]4(C)C(C(C)N(C)C)=CCC4C3CCC2[C@H]1O (some centres undefined)	8.68	21.4 µM	3.06	13.6	2	4.53	2.58	9.59 µM	–	–	–	–	–	–
N#C/C(=N\Nc1ccccc1)C(=O)Nc1cc(-c2ccccc2)nn1-c1ccccc1	4.08	> 100 µM	2.46	> 100	3.05	> 100	2.03	8.11 µM	–	–	–	–	–	–
CCCCCCCC(=O)SCC/C=C/[C@@H]1CC(=O)NCc2nc(cs2)C2=N[C@@](C)(CS2)C(=O)N[C@@H](C(C)C)C(=O)N1	< 0.01	> 100 µM	0.0198	> 100	< 0.01	1.9	< 0.0124	0.0677 µM	–	–	–	–	–	–
Cc1ccc2nc3cc(C)c(=O)cc-3sc2c1	–	–	–	–	–	–	–	–	> 100	30.7	> 100	–	–	–
Cc1nc(/C=C2\C(=O)C=Cc3ccccc32)c(O)o1	–	–	–	–	–	–	–	–	> 100	> 100	> 100	–	–	–
Clc1ccc2nc(CI)c(CI)nc2c1	10.1	23.5 µM	2.87	9.53	3.16	14.4	2.6	8.28 µM	–	–	–	–	–	–
CC(=O)NNc1nc(C)c(C(=O)/C=C/c2ccc(Cl)cc2)s1	–	–	–	–	–	–	–	–	> 100	> 100	> 100	–	–	–
Cc1ccc(S(=O)(=O)OC(COC(=O)c2ccccc2)C(OS(=O)(=O)c2ccc(C)cc2)C(OS(=O)(=O)c2ccc(C)cc2)C(COC(=O)c2ccccc2)OS(=O)(=O)c2ccc(C)cc2)cc1 (centres undefined)	–	–	–	–	–	–	–	–	–	> 100	> 100	–	–	–
CC(C(=O)c1ccccc1)C1(O)C(=O)Nc2ccc(Cl)cc21 (centres undefined)	–	–	–	–	–	–	–	–	> 100	31.6	> 100	–	–	–
O=C(Nc1ccc(F)cc1)Nc1ccc(Br)c(C(F)(F)F)c1	3.27	13.4 µM	2.29	10.3	2.4	8.59	1.62	7.4 µM	–	–	–	–	–	–
O=C(c1ccco1)c1c(C(F)(F)F)n([O-])c2cc(C(F)(F)F)ccc2[n+]1=O	0.549	1.21 µM	0.445	1.95	1.47	3.1	0.355	1.47 µM	–	–	–	–	–	–
COc1ccc(NC(=O)c2sc3nc(C)c(C(=O)/C=C/c4cccc(OC)c4)cc3c2N)cc1	1.64	5.66 µM	0.339	> 50	1.35	6.78	1.46	> 50 µM	–	–	–	–	–	–
CC(=O)OC12c3ccccc3-c3ccccc3C1C(C(=O)O)C2C(=O)O (centres undefined)	–	> 10 µM	–	> 10	–	> 10	–	> 10 µM	–	–	–	–	–	–
C[C@]12CC[C@H]3[C@@H](CC4SC(N)=NC45C/C(=N/NC(N)=O)CC[C@]35C)[C@@H]1CCC2=O (some centres undefined)	1.75	3.41 µM	1.52	3.14	1.33	2.7	1.86	3.8 µM	–	–	–	–	–	–
CCOC(=O)C1=C(C)N(NC(N)=O)C2(N)N(NC(N)=O)C(C)=C(C(=O)OCC)C12C(=O)OCC (centres undefined)	–	–	–	–	–	–	–	–	–	> 100	> 100	–	–	–
C1CN(P2(N3CC3)=NP(N3CC3)(N3CC3)=NP(N3CC3)(N3CC3)=N2)CCO1 (centres undefined)	–	–	–	–	–	–	–	–	> 100	> 100	> 100	–	–	–
Cc1c(Cl)cccc1NC(=O)/C=C/c1ccccc1	–	> 100 µM	–	> 100	–	> 100	–	> 100 µM	–	–	–	> 100	–	–
Cc1c(N)nc(C(CC(N)=O)NCC(N)C(N)=O)nc1C(=O)NC(C(=O)NC(C)C(O)C(C)C(=O)NC(C(=O)NCCc1nc(-c2nc(C(=O)NCCCNC(C)c3ccccc3)cs2)cs1)C(C)O)C(OC1OC(CO)C(O)C(O)C1OC1OC(CO)C(O)C(OC(N)=O)C1O)c1cnc[nH]1 (centres undefined)	10.5	39.2 µM and 55 µM	–	> 100	76	> 100	23.8	50 µM and > 100 µM	46.8	50	50	> 100	> 100	–
O=C1C=Cc2c1ccc1ccccc21	48.8	> 100 µM	18.6	> 100	14.9	42.9	37.9	> 100 µM	–	–	–	–	–	–
COc1ccc(/C(C#N)=C/c2cc(OC)c(OC)c(OC)c2)cc1	40.1	> 100 µM	11.1	> 100	2.19	12.5	17	67.6 µM	–	–	–	–	–	–
O=c1oc2cc(OC/C(=N/O)c3ccc(F)cc3)ccc2c2ccccc12	18.5	34.7 µM	14.9	38.4	17.3	38.7	35.4	> 100 µM	–	–	–	–	–	–
COc1cc(NS(C)(=O)=O)ccc1NCc1c2ccccc2nc2ccccc12	–	–	–	–	–	–	–	–	–	–	> 100	–	–	71.3

Reference: PubChem BioAssay (NCI)
